Results: ChEMBL document CHEMBL1124186, “Synthesis and evaluation of tylosin-related macrolides modified at the aldehyde function: a new series of orally effective antibiotics” (1988)
Values after ≈ are worked out from the molar mass of the structure shown.

Key:
[1] = test system: Staphylococcus aureus; experiment: In vitro antimicrobial activity against aerobic bacteria Staphylococcus aureus 513E; type: functional
[2] = test system: Streptococcus; experiment: In vitro antimicrobial activity against aerobic bacteria Streptococcus B 14; type: functional
[3] = test system: Streptococcus; experiment: In vitro antimicrobial activity against aerobic bacteria Streptococcus D 2041; type: functional
[4] = test system: Clostridium septicum; experiment: In vitro antimicrobial activity against anaerobic bacteria clostridium septicum 1128; type: functional
[5] = test system: Bacteroides thetaiotaomicron; experiment: In vitro antimicrobial activity against anaerobic bacteria bacteroides thetaiotaomicron 1438; type: functional
[6] = test system: Haemophilus influenzae; experiment: In vitro antimicrobial activity against aerobic bacteria Haemophilus influenzae 76; type: functional
[7] = test system: Bacteroides fragilis; experiment: In vitro antimicrobial activity against anaerobic bacteria bacteroides fragilis 111; type: functional
[8] = test system: Chlamydia trachomatis; experiment: In vitro antimicrobial activity against chlamydia trachomatis.; type: functional
[9] = test system: Haemophilus influenzae; experiment: In vitro antimicrobial activity against aerobic bacteria Haemophilus influenzae MX366; type: functional
[10] = test system: Staphylococcus aureus; experiment: In vivo effective dose against experimental infections in mice Staphylococcus aureus X1 when administered sc; type: functional
[11] = test system: Streptococcus; experiment: In vitro antimicrobial activity against aerobic bacteria Streptococcus G Kruder; type: functional; conditions: Streptococcus; read-out: MIC
[12] = In vitro antimicrobial activity against anaerobic bacteria peptostreptococcus intermedius 1264; type: functional
[13] = test system: Streptococcus pneumoniae; experiment: In vitro antimicrobial activity against aerobic bacteria Streptococcus pneumoniae B1-438; type: functional, streptococcus pneum
[14] = test system: Anaerococcus prevotii; experiment: In vitro antimicrobial activity against anaerobic bacteria peptococcus prevoti 1281; type: functional
[15] = test system: Streptococcus viridans; experiment: In vitro antimicrobial activity against aerobic bacteria Streptococcus viridans 9943; type: functional
[16] = test system: Streptococcus; experiment: In vitro antimicrobial activity against aerobic bacteria Streptococcus D 9960; type: functional
[17] = test system: Eikenella corrodens; experiment: In vitro antimicrobial activity against anaerobic bacteria bacteroides corrodens 1874; type: functional
[18] = test system: Staphylococcus aureus; experiment: In vitro antimicrobial activity against Staphylococcus aureus X1; type: functional
[19] = test system: Staphylococcus epidermidis; experiment: In vitro antimicrobial activity against Staphylococcus epidermidis EPI1; type: functional
[20] = test system: Peptostreptococcus anaerobius; experiment: In vitro antimicrobial activity against anaerobic bacteria eubacterium peptostreptococcus anaerobius 1428,; type: functional
[21] = test system: Streptococcus sanguinis; experiment: In vitro antimicrobial activity against aerobic bacteria Streptococcus sanguis MX132; type: functional
[22] = test system: Streptococcus; experiment: In vitro antimicrobial activity against aerobic bacteria Streptococcus C 24; type: functional
[23] = test system: Streptococcus pyogenes; experiment: In vitro antimicrobial activity against Streptococcus pyogenes C203; type: functional
[24] = test system: Streptococcus pneumoniae; experiment: In vitro antimicrobial activity against Streptococcus pneumoniae; type: functional
[25] = test system: Fusobacterium; experiment: In vitro antimicrobial activity against anaerobic bacteria fusobacterium symbiosum 1470; type: functional
[26] = test system: Enterococcus faecium; experiment: In vitro antimicrobial activity against Streptococcus faecium X66; type: functional, streptococcus fae-cium
[27] = test system: Streptococcus; experiment: In vitro antimicrobial activity against aerobic bacteria Streptococcus B 5; type: functional
[28] = test system: Staphylococcus epidermidis; experiment: In vitro antimicrobial activity against aerobic bacteria Streptococcus epi 222; type: functional
[29] = test system: Staphylococcus aureus; experiment: In vitro antimicrobial activity against aerobic bacteria Staphylococcus aureus X400; type: functional
[30] = test system: Staphylococcus aureus; experiment: In vitro antimicrobial activity against aerobic bacteria Staphylococcus aureus V41; type: functional
[31] = test system: Streptococcus pneumoniae; experiment: In vivo effective dose against experimental infections in mice Strep. pneumoniae park when administered orally; type: functional; conditions: po
[32] = test system: Streptococcus; experiment: In vitro antimicrobial activity against aerobic bacteria Streptococcus D 8043; type: functional
[33] = test system: Streptococcus pyogenes; experiment: In vivo effective dose against experimental infections in rodent caused by Streptococcus pyogenes C203 when administered sc; type: functional
[34] = test system: Peptoniphilus asaccharolyticus; experiment: In vitro antimicrobial activity against anaerobic bacteria peptococcus asaccharolyticus 1302; type: functional
[35] = test system: Bacteroides fragilis; experiment: In vitro antimicrobial activity against anaerobic bacteria bacteroides fragilis 1877; type: functional
[36] = test system: Streptococcus; experiment: In vitro antimicrobial activity against aerobic bacteria Streptococcus B 8; type: functional
[37] = test system: Prevotella melaninogenica; experiment: In vitro antimicrobial activity against anaerobic bacteria bacteroides melaninogenicus 2736; type: functional
[38] = test system: Staphylococcus aureus; experiment: In vivo effective dose against experimental infections in mice Staphylococcus aureus X1 when administered orally; type: functional; conditions: po
[39] = test system: Cutibacterium acnes; experiment: In vitro antimicrobial activity against anaerobic bacteria propionibacterium acnes 79; type: functional
[40] = test system: Clostridium perfringens; experiment: In vitro antimicrobial activity against anaerobic bacteria clostridium perfringens 81,; type: functional
[41] = test system: Staphylococcus aureus; experiment: In vitro antimicrobial activity against aerobic bacteria Staphylococcus aureus V135; type: functional
[42] = test system: Streptococcus pneumoniae; experiment: In vivo effective dose against experimental infections in mice Strep. pneumoniae park when administered sc; type: functional
[43] = test system: Bacteroides fragilis; experiment: In vitro antimicrobial activity against anaerobic bacteria bacteroides fragilis 1936B,; type: functional
[44] = test system: Clostridioides difficile; experiment: In vitro antimicrobial activity against anaerobic bacteria Clostridium difficile 2994; type: functional
[45] = test system: Prevotella melaninogenica; experiment: In vitro antimicrobial activity against anaerobic bacteria bacteroides melaninogenicus 1856,; type: functional
[46] = test system: Staphylococcus aureus; experiment: In vitro antimicrobial activity against aerobic bacteria Staphylococcus aureus V140,; type: functional
[47] = test system: Phocaeicola vulgatus; experiment: In vitro antimicrobial activity against anaerobic bacteria bacteroides vulgatus 1211; type: functional
[48] = test system: Collinsella aerofaciens; experiment: In vitro antimicrobial activity against anaerobic bacteria eubacterium aerofaciens 1235; type: functional
[49] = test system: Haemophilus influenzae; experiment: In vitro antimicrobial activity against Haemophilus influenzae.; type: functional
[50] = test system: Fusobacterium necrophorum; experiment: In vitro antimicrobial activity against anaerobic bacteria usobacterium necrophorum 6054A; type: functional
[51] = test system: Staphylococcus epidermidis; experiment: In vitro antimicrobial activity against aerobic bacteria Streptococcus epi 270; type: functional

## CC[C@H]1OC(=O)C[C@@H](O)[C@H](C)[C@@H](O[C@@H]2O[C@H](C)[C@@H](O)[C@H](N(C)C)[C@H]2O)[C@@H](CCN=[N+]=[N-])C[C@@H](C)C(=O)/C=C/C(C)=C/[C@@H]1CO[C@@H]1O[C@H](C)[C@@H](O)[C@@H](OC)[C@H]1OC
[1]
  MIC: 0.12 µg/mL (≈ 0.15 µM)
[2]
  MIC: 16 µg/mL (≈ 20 µM)
[3]
  MIC: 16 µg/mL (≈ 20 µM)
[4]
  MIC: < 0.5 µg/mL
[5]
  MIC: 2 µg/mL (≈ 2.5 µM)
[6]
  MIC: 4 µg/mL (≈ 5.01 µM)
[7]
  MIC: 2 µg/mL (≈ 2.5 µM)
[8]
  MIC: 0.5 µg/mL (≈ 0.626 µM)
[9]
  MIC: 32 µg/mL (≈ 40.1 µM)
[10]
  ED50: 2.8 mg/kg
[11]
  MIC: 64 µg/mL (≈ 80.1 µM)
[12]
  MIC: 2 µg/mL (≈ 2.5 µM)
[13]
  MIC: > 128 µg/mL
[14]
  MIC: 2 µg/mL (≈ 2.5 µM)
[15]
  MIC: > 128 µg/mL
[16]
  MIC: 8 µg/mL (≈ 10 µM)
[17]
  MIC: 2 µg/mL (≈ 2.5 µM)
[18]
  MIC: 0.12 µg/mL (≈ 0.15 µM)
[19]
  MIC: 0.12 µg/mL (≈ 0.15 µM)
[20]
  MIC: < 0.5 µg/mL
[21]
  MIC: 1 µg/mL (≈ 1.25 µM)
[22]
  MIC: 0.5 µg/mL (≈ 0.626 µM)
[23]
  MIC: 0.25 µg/mL (≈ 0.313 µM)
[24]
  MIC: 2 µg/mL (≈ 2.5 µM)
[25]
  MIC: 2 µg/mL (≈ 2.5 µM)
[26]
  MIC: 4 µg/mL (≈ 5.01 µM)
[27]
  MIC: 8 µg/mL (≈ 10 µM)
[28]
  MIC: 0.25 µg/mL (≈ 0.313 µM)
[29]
  MIC: 0.25 µg/mL (≈ 0.313 µM)
[30]
  MIC: 0.12 µg/mL (≈ 0.15 µM)
[31]
  ED50: > 50 mg/kg
[32]
  MIC: 4 µg/mL (≈ 5.01 µM)
[33]
  ED50: 3.8 mg/kg
[34]
  MIC: 1 µg/mL (≈ 1.25 µM)
[35]
  MIC: 2 µg/mL (≈ 2.5 µM)
[36]
  MIC: 8 µg/mL (≈ 10 µM)
[37]
  MIC: 2 µg/mL (≈ 2.5 µM)
[38]
  ED50: 18 mg/kg
[39]
  MIC: 16 µg/mL (≈ 20 µM)
[40]
  MIC: < 0.5 µg/mL
[41]
  MIC: 0.25 µg/mL (≈ 0.313 µM)
[42]
  ED50: > 20 mg/kg
[43]
  MIC: 2 µg/mL (≈ 2.5 µM)
[44]
  MIC: < 0.5 µg/mL
[45]
  MIC: 1 µg/mL (≈ 1.25 µM)
[46]
  MIC: 0.25 µg/mL (≈ 0.313 µM)
[47]
  MIC: 2 µg/mL (≈ 2.5 µM)
[48]
  MIC: 2 µg/mL (≈ 2.5 µM)
[49]
  MIC: 16 µg/mL (≈ 20 µM)
[50]
  MIC: 16 µg/mL (≈ 20 µM)
[51]
  MIC: > 128 µg/mL
